Assay results published in patent EP4345091A1, “BENZOIC ACID DERIVATIVES, METHODS AND USES THEREOF” (priority 2022, dated 2024).
Values after ≈ are worked out from the molar mass of the structure shown. Where two headings read alike, the source gives them in different places.

What was measured:
M. avium DSM 44156 = test: MIC and MBC against M. avium; assay type: cell-based
[1] = pH 7.4
Method: (§3) Chemical hydrolysis was evaluated in phosphate buffer at physiological pH (7.4) to determine its influence in enzymatic studies.
(§4) 1176 µL pH 7.4 phosphate buffer or pH 5.9 phosphate buffer, 18 µL ACN and 6 µL of a 10-1 M stock solution of the prodrug in ACN were mixed in a 2mL vial. The solution was incubated at 37 °C and 50 µL aliquots were removed, mixed with 450 µL of ACN: H2O 1:1. The solution was analysed by HPLC, the remaining substrate and the correspondent acid were both measured.
(§5) The eluant was a mixture of acetonitrile (60%/70%) and aqueous phosphate buffer with 5% of KH2PO4/H3PO4 0.025M (40%/30%). The flow rate was always 1 mL/1 min and wavelength was set at 230 nm. All quantifications were evaluated using calibration curves from stock solutions.
(§6) The initial substrate concentration was 5 x 10^-4 M in all stability assays. All incubations were carried out at pH 7.4 and 37 °C under agitation using the phosphate buffer described above as diluting agent. […] Acetonitrile (2%) was used in all studies to ensure adequate solubilization of the substrates.

[2] = system: Mycobacterium smegmatis homogenate; test: Stability in Mycobacterium smegmatis homogenate (enzymatic hydrolysis); details: Mycobacterium smegmatis homogenate, 37°C
M. bovis BCG = test: microbe, parasite or virus in culture; assay type: cell-based; details: Mycobacterium tuberculosis variant bovis BCG
M. smegmatis mc2 155 = test: MIC and MBC against M. smegmatis; assay type: cell-based
[3] = system: human monocytic cell line THP-1 (ATCC56 TIB202); test: Cytotoxicity assay in THP-1 cells; assay type: cell-based; details: toxicity/activity index: ratio LC50 (THP-1) / MIC (M. tuberculosis H37Rv)
Source text: (§1) Cytotoxicity results were obtained through lethal concentration for 50% of the cell population, LC50. Table 6. Results obtained from cytotoxicity assays for the esters, represented by LD50 in µg/mL and comparison with MIC values, in µg/mL with toxicity/activity (T/A) index.
(§2) The T/A index quantitatively is the ratio between the lethal concentration (LC50) given by the minimum inhibitory concentration (MIC).

[4] = Cytotoxicity assay in THP-1 cells; assay type: cell-based, human; details: human; THP-1 cells; lethal concentration for 50% of the cell population; read-out: LC50 (the source's name)
Source text: as §1, §2

[5] = system: Mycobacterium tuberculosis H37Rv; test: MIC and MBC by broth microdilution against M. tuberculosis H37Rv; assay type: cell-based, Mycobacterium tuberculosis H37Rv (ATCC 27294)
[6] = Stability in Mycobacterium smegmatis homogenate (enzymatic hydrolysis); details: mycobacterium smegmatis homogenate, pH 7.4
[7] = system: Mycobacterium Bovis BCG infecting human macrophages THP-1; assay type: cell-based; details: compound concentration 2 µg/ml
[8] = Chemical stability in phosphate buffer pH 7.4
Method: as §3, §4, §5, §6

[9] = Stability in human plasma (enzymatic hydrolysis)
Method: The studies of stability in human plasma were performed in human plasma diluted to 80% with phosphate buffer pH 7.4 of total concentration 0.05 M and ionic strength 0.15 M at 37°C. […] Study of enzymatic hydrolysis. […] Initial substrate concentration (ester) - 5×10^-4M with 2% ACN.
Pooled human plasma (960 µL), pH 7.4 phosphate buffered saline (216 µL), 18 µL ACN and 6 µL of a 10-1 M stock solution of the prodrug in ACN were mixed in a 2mL vial. The suspensions were incubated at 37 °C and 50 µL aliquots were removed, mixed with 450 µL of ACN: ZnSO4 1% 1:1 and centrifuged. The supernatant was removed and analysed by HPLC, the remaining substrate and the correspondent acid measured.
Two HPLC systems were used. The buffer and plasma stability studies were performed in an HPLC system with a photodiode detector L-3000 Photo Diode Array Detector, Merck-Hitachi L-6000 pump, Merck-Hitachi D-2500 integrator, and Merck RP-8 column. […] The eluant was a mixture of acetonitrile (60%/70%) and aqueous phosphate buffer with 5% of KH2PO4/H3PO4 0.025M (40%/30%). The flow rate was always 1 mL/1 min and wavelength was set at 230 nm. All quantifications were evaluated using calibration curves from stock solutions.
The initial substrate concentration was 5 x 10^-4 M in all stability assays. All incubations were carried out at pH 7.4 and 37 °C under agitation using the phosphate buffer described above as diluting agent. […] Acetonitrile (2%) was used in all studies to ensure adequate solubilization of the substrates. The benzoates were added from 10 to 1M acetonitrile stock solutions. After incubation, aliquots of 50 µL were taken into vials containing 450 µL of a 1:1 solution of 1% zinc sulfate and acetonitrile, mixed in a vortex and centrifuged for 10 min at 15,000 rpm. The supernatant was then injected into the HPLC and analysed for quantification of benzoic acid and remaining benzoate. All quantifications were performed using calibration curves.

[10] = Mycolicibacterium smegmatis, MC2155
[11] = Mycobacterium tuberculosis, H37RV, M. tuberculosis H37Rv, Table 3
[12] = Mycobacterium tuberculosis, H37RV, M. tuberculosis H37Rv, Table 4
[13] = Mycobacterium tuberculosis, H37RV, M. tuberculosis H37Rv, Tables 3, 6 and 7

Compound	MBC (M. avium DSM 44156; Mycobacterium avium, DSM44156) [µg/mL]	MIC (M. avium DSM 44156; Mycobacterium avium, DSM44156) [µg/mL]	Degradation (%) 24h [2] [%]	Degradation (%) 48h [2] [%]	MBC (M. bovis BCG) [µg/mL]	MIC (M. bovis BCG) [µg/mL]	MBC (M. smegmatis mc2 155; [10]) [µg/mL]	MIC (M. smegmatis mc2 155; [10]) [µg/mL]	T/A [3]	CC50 [4] [µg/mL]	MBC [5, 11] [µg/mL]	MBC [5, 12] [µg/mL]	MIC [5, 12] [µg/mL]	MIC [5, 13] [µg/mL]	CFU x10^4 ([7]; Time 0 days) [CFUs per mL]	CFU x10^4 ([7]; Time 1 day) [CFUs per mL]	CFU x10^4 ([7]; Time 3 days) [CFUs per mL]	CFU x10^4 ([7]; Time 7 days) [CFUs per mL]	further results
CCCCCCCCNC(=O)c1cc([N+](=O)[O-])cc([N+](=O)[O-])c1 [Compound 7c, N-octyl-3.5-dinitrobenzamide]	64 (≈ 198 µM)	32 (≈ 99 µM)	3	5	0.015 (≈ 0.0464 µM)	0.015 (≈ 0.0464 µM)	4 (≈ 12.4 µM)	0.25 (≈ 0.773 µM)	6063	97 (≈ 300 µM)	0.016 (≈ 0.0495 µM)	≤ 0.062	≤ 0.062	0.016 (≈ 0.0495 µM)	–	–	–	–	Degradation (%) 24h [1]: 0%; Degradation (%) 48h [1]: 0%; Degradation (%) 72h [1]: 0%; Degradation (%) 168h [1]: 0%; Degradation (%) 332h [1]: 0%
CCCCCCNC(=O)c1cc([N+](=O)[O-])cc([N+](=O)[O-])c1 [Compound 7b, N-hexyl-3.5-dinitrobenzamide]	–	–	18	33	0.25 (≈ 0.847 µM)	0.25 (≈ 0.847 µM)	1 (≈ 3.39 µM)	1 (≈ 3.39 µM)	11645	361 (≈ 1220 µM)	0.031 (≈ 0.105 µM)	≤ 0.5	≤ 0.5	0.031 (≈ 0.105 µM)	9.2	4.58	0.40	0.05	half-life at 500 µM [6]: 82.5 ± 1.4 h
CCCCCCCCCCCCCCNC(=O)c1cc([N+](=O)[O-])cc([N+](=O)[O-])c1 [Compound 7f, N-tetradecyl-3.5-dinitrobenzamide]	–	–	1	2	0.25 (≈ 0.613 µM)	0.25 (≈ 0.613 µM)	4 (≈ 9.82 µM)	1 (≈ 2.45 µM)	2640	330 (≈ 810 µM)	0.25 (≈ 0.613 µM)	≤ 0.5	≤ 0.5	0.125 (≈ 0.307 µM)	9.2	14.16	10.08	13.91	–
CCCCCCCCCCNC(=O)c1cc([N+](=O)[O-])cc([N+](=O)[O-])c1 [Compound 7d, N-decyl-3.5-dinitrobenzamide]	–	–	1	2	0.062 (≈ 0.176 µM)	0.062 (≈ 0.176 µM)	1 (≈ 2.85 µM)	1 (≈ 2.85 µM)	841	53 (≈ 151 µM)	0.063 (≈ 0.179 µM)	≤ 0.5	≤ 0.5	0.063 (≈ 0.179 µM)	9.2	7.33	0.32	0.03	–
N-butyl-3.5-dinitrobenzamide [Compound 7a]	–	–	–	–	–	–	–	–	–	–	–	–	–	–	–	–	–	–	MBC (M. avium DSM 44156; M. avium DSM 44156): 512 µg/mL; MIC (M. avium DSM 44156; M. avium DSM 44156): 64 µg/mL; MBC (M. smegmatis mc2 155; M. smegmatis mc2 155): 4 µg/mL; MIC (M. smegmatis mc2 155; M. smegmatis mc2 155): 4 µg/mL; MBC [5]: 0.5 µg/mL; MIC [5]: 0.5 µg/mL
CCCCCCCCCCCCNC(=O)c1cc([N+](=O)[O-])cc([N+](=O)[O-])c1 [Compound 7e, N-dodecyl-3.5-dinitrobenzamide]	> 341	> 341	1	2	0.166 (≈ 0.437 µM)	0.083 (≈ 0.219 µM)	> 2.66	0.66 (≈ 1.74 µM)	144	72 (≈ 190 µM)	0.5 (≈ 1.32 µM)	0.5 (≈ 1.32 µM)	0.5 (≈ 1.32 µM)	0.5 (≈ 1.32 µM)	–	–	–	–	Degradation (%) 24h ([8]; 24h): 0%; Degradation (%) 48h ([8]; 48h): 0%; Degradation (%) 72h ([8]; 72h): 0%; Degradation (%) 168h ([8]; 168h): 0%; Degradation (%) 332h ([8]; 332h): 0%; Degradation (%) 24h ([9]; 24h): 0%; Degradation (%) 48h ([9]; 48h): 0%; Degradation (%) 72h ([9]; 72h): 0%
